This assay has as its system male spontaneously hypertensive rats. The assay can be described thus: Decrease in systolic blood pressure in spontaneously hypertensive rats after intravenous bolus injection, indirect (tail-cuff) method. The format is in vivo, rat. The conditions noted are these: for Decrease in systolic blood pressure (mmHg) time after administration (hour) 0.5: 0.5 hour after administration; for Decrease in systolic blood pressure (mmHg) time after administration (hour) 4: 4 hours after administration. The procedure:
As test animals, four male spontaneously hypertensive rats (weight 400 to 440 g) that were sufficiently adapted for feeding and in which hypertension was confirmed were used.
Physiological saline aqueous solution containing 2.5% Nicolle and 2.5% ethanol of sample was intravenously administered by bolus injection at a dose of 1 ml per 1 kg of body weight. Systolic blood pressure after administration was measured by the indirect (tail-cuff) method.

With `Cc1ccccc1C(=O)N1CCC(=C2c3ccccc3C=Cc3ccccc32)CC1` [Example 190, 4-(5H-Dibenzo[a,d]cyclohepten-5-ylidene)-1-(2-methylbenzoyl)piperidine], under “dose 10 mg/kg i.v. bolus”, the “Decrease in systolic blood pressure (mmHg) time after administration (hour) 0.5” value (“Decrease in systolic blood pressure … (hour) 0.5” below) is on record as −11 mmHg and the “Decrease in systolic blood pressure (mmHg) time after administration (hour) 4” value (from here on “Decrease in systolic blood pressure … (hour) 4”) is on record as −15 mmHg.

Regarding `O=C(Cc1ccc(F)cc1)N1CCC(=C2c3ccccc3C=Cc3ccccc32)CC1` [Example 191, 4-(5H-Dibenzo[a,d]cyclohepten-5-ylidene)-1-(2-(4-fluorophenyl)acetyl)piperidine], where the note is “dose 10 mg/kg i.v. bolus”, the “Decrease in systolic blood pressure … (hour) 0.5” value is −29 mmHg and the “Decrease in systolic blood pressure … (hour) 4” value is given as −20 mmHg.

Regarding `Cl.Fc1cccc(CN2CCC(=C3c4ccccc4C=Cc4ccccc43)CC2)c1` [Example 112, 4-(5H-Dibenzo[a,d]cyclohepten-5-ylidene)-1-(3-fluorobenzyl)piperidine hydrochloride], for the setting “dose 10 mg/kg i.v. bolus”, the “Decrease in systolic blood pressure … (hour) 0.5” value is reported as −16 mmHg and the “Decrease in systolic blood pressure … (hour) 4” value is recorded as 0 mmHg.

Consider “4-(2-(4-(5H-Dibenzo[a,d]cyclohepten-5-ylidene)-1-piperidinyl)-1-ehtyl)-2,4,5,6-tetramethyl-1,4-dihydropyridino-3,5-dicarboxylate hydrochloride [Example 311]”, for which, under “dose 10 mg/kg i.v. bolus”, the “Decrease in systolic blood pressure … (hour) 0.5” value is recorded as −90 mmHg and the “Decrease in systolic blood pressure … (hour) 4” value is listed as −18 mmHg.

Consider `COC(=O)c1ccc(C=CCN2CCC(=C3c4ccccc4C=Cc4ccccc43)CC2)cc1.Cl` [Example 376, 4-(5H-Dibenzo[a,d]cyclohepten-5-ylidene)-1-(4-methoxycarbonylcinnamyl)piperidine hydrochloride], for which, under “dose 3 mg/kg i.v. bolus”, the “Decrease in systolic blood pressure … (hour) 0.5” value is given as −106 mmHg and the “Decrease in systolic blood pressure … (hour) 4” value is on record as −77 mmHg.

As to `COc1cc(C=CCN2CCC(=C3c4ccccc4C=Cc4ccccc43)CC2)ccc1O.Cl` [Example 365, 4-(5H-Dibenzo[a,d]cyclohepten-5-ylidene)-1-(4-hydroxy-3-methoxycinnamyl)piperidine hydrochloridine], under “dose 3 mg/kg i.v. bolus”, the “Decrease in systolic blood pressure … (hour) 0.5” value is recorded as −80 mmHg and the “Decrease in systolic blood pressure … (hour) 4” value was −56 mmHg.

`COc1ccccc1C=CCN1CCC(=C2c3ccccc3C=Cc3ccccc32)CC1.Cl` [Example 347, 4-(5H-Dibenzo[a,d]cyclohepten-5-ylidene)-1-(2-methoxycinnamyl)piperidine hydrochloride]: under “dose 3 mg/kg i.v. bolus”, the “Decrease in systolic blood pressure … (hour) 0.5” value is −116 mmHg and the “Decrease in systolic blood pressure … (hour) 4” value is −53 mmHg.

Consider `CCCCC(O)(CCCN1CCC(=C2c3ccccc3C=Cc3ccccc32)CC1)c1ccc(OC)c(OC)c1.Cl` (centres unmarked) [Example 207, 1-butyl-4-(4-(5H-dibenzo[a,d]cyclohepten-5-ylidene)-1-piperidinyl)-1-(3,4-dimethoxy)phenyl-1-hydroxybutane hydroxybutane hydrochloride], for which, under “dose 10 mg/kg i.v. bolus”, the “Decrease in systolic blood pressure … (hour) 0.5” value is on record as −98 mmHg and the “Decrease in systolic blood pressure … (hour) 4” value was −43 mmHg.

For `Cl.O=[N+]([O-])c1ccccc1C=CCN1CCC(=C2c3ccccc3C=Cc3ccccc32)CC1` [Example 302, 4-(5H-Dibenzo[a,d]cyclohepten-5-ylidene)-1-(2-nitrocinnamyl)piperidinyl hydrochloride], for the setting “dose 10 mg/kg i.v. bolus”, the “Decrease in systolic blood pressure … (hour) 0.5” value is listed as −83 mmHg and the “Decrease in systolic blood pressure … (hour) 4” value is −41 mmHg.

As for `Cl.N#Cc1ccc(C=CCN2CCC(=C3c4ccccc4C=Cc4ccccc43)CC2)cc1` [Example 346, 1-(4-Cyanocinnamyl)-4-(5H-Dibenzo[a,d]cyclohepten-5-ylidene)-1-piperidine hydrochloride], where the note is “dose 3 mg/kg i.v. bolus”, the “Decrease in systolic blood pressure … (hour) 0.5” value was −142 mmHg and the “Decrease in systolic blood pressure … (hour) 4” value is −121 mmHg.

Consider `C1=Cc2ccccc2C(=C2CCN(CCCC3CCCCN3)CC2)c2ccccc21.Cl.Cl` (centres unmarked) [Example 307, 3-(4-(5H-Dibenzo[a,d]cyclohepten-5-ylidene)-1-piperidinyl)-1-(2-piperidinyl)propane dihydrochloride], for which, for the setting “dose 10 mg/kg i.v. bolus”, the “Decrease in systolic blood pressure … (hour) 0.5” value is on record as −62 mmHg and the “Decrease in systolic blood pressure … (hour) 4” value is reported as −20 mmHg.

Consider `C1=Cc2ccccc2C(=C2CCN(CCCCCc3ccccc3)CC2)c2ccccc21.Cl` [Example 16, 5-(4-(5H-Dibenzo[a,d]cyclohepten-5-ylidene)-1-piperidinyl)-1-phenylpentane hydrochloride], for which, under “dose 10 mg/kg i.v. bolus”, the “Decrease in systolic blood pressure … (hour) 0.5” value is −114 mmHg and the “Decrease in systolic blood pressure … (hour) 4” value was −30 mmHg.

For `CCCCCCCCCCCCCCCCCCCN1CCC(=C2c3ccccc3C=Cc3ccccc32)CC1.Cl` [Example 135, 4-(5H-Dibenzo[a,d]cyclohepten-5-ylidene)-1-nondecylpiperidine hydrochloride], for the setting “dose 10 mg/kg i.v. bolus”, the “Decrease in systolic blood pressure … (hour) 0.5” value is recorded as −132 mmHg and the “Decrease in systolic blood pressure … (hour) 4” value was −50 mmHg.

For the molecule `C1=Cc2ccccc2C(=C2CCN(CCCc3cccnc3)CC2)c2ccccc21.Cl.Cl` [Example 270, 3-(4-(5H-Dibenzo[a,d]cyclohepten-5-ylidene)-1-piperidinyl)-1-(3-pyridyl)propane dihydrochloride], under “dose 10 mg/kg i.v. bolus”, the “Decrease in systolic blood pressure … (hour) 0.5” value is −18 mmHg and the “Decrease in systolic blood pressure … (hour) 4” value is on record as 2 mmHg.

In the case of `COc1cc(C=CCN2CCC(=C3c4ccccc4C=Cc4ccccc43)CC2)cc(OC)c1.Cl` [Example 345, 4-(5H-Dibenzo[a,d]cyclohepten-5-ylidene)-1-(3,5-dimethoxycinnamyl)piperidine hydrochloride], where the note is “dose 3 mg/kg i.v. bolus”, the “Decrease in systolic blood pressure … (hour) 0.5” value was −120 mmHg and the “Decrease in systolic blood pressure … (hour) 4” value is listed as −95 mmHg.

Turning to `CC(=O)Nc1ccccc1CCCN1CCC(=C2c3ccccc3C=Cc3ccccc32)CC1.Cl.Cl` [Example 252, 1-(2-Acetylaminophenyl)-3-(4-(5H-Dibenzo[a,d]cyclohepten-5-ylidene)-1-piperidinyl)propane dihydrochloride], under “dose 10 mg/kg i.v. bolus”, the “Decrease in systolic blood pressure … (hour) 0.5” value is listed as −23 mmHg and the “Decrease in systolic blood pressure … (hour) 4” value was −5 mmHg.

Consider `COc1ccc(C(=O)CCCN2CCC(=C3c4ccccc4C=Cc4ccccc43)CC2)c(OC)c1OC.Cl` [Example 171, 4-(4-(5H-Dibenzo[a,d]cyclohepten-5-ylidene)-1-piperidinyl)-2′,3′,4′-trimethoxybutyrophenone hydrochloride], for which, for the setting “dose 10 mg/kg i.v. bolus”, the “Decrease in systolic blood pressure … (hour) 0.5” value is on record as −122 mmHg and the “Decrease in systolic blood pressure … (hour) 4” value is given as −8 mmHg.

`CCOC(=O)C(CCC1CCCCC1)CN1CCC(=C2c3ccccc3C=Cc3ccccc32)CC1.Cl` (centres unmarked) [Example 262]: for the setting “dose 10 mg/kg i.v. bolus”, the “Decrease in systolic blood pressure … (hour) 0.5” value is given as −16 mmHg and the “Decrease in systolic blood pressure … (hour) 4” value was −3 mmHg.

In the case of `CC(=O)N1CCCC(CCCN2CCC(=C3c4ccccc4C=Cc4ccccc43)CC2)C1.Cl` (centres unmarked) [Example 280, 1-(n-Acetyl-3-piperidinyl)-3-(4-(5H-Dibenzo[a,d]cyclohepten-5-ylidene)-1-piperidinyl)propane hydrochloride], for the setting “dose 10 mg/kg i.v. bolus”, the “Decrease in systolic blood pressure … (hour) 0.5” value is −50 mmHg and the “Decrease in systolic blood pressure … (hour) 4” value is listed as −11 mmHg.
